How the values were obtained:
IP L1210 = assay: Activity against IP-implanted L1210 leukemia sensitive to cisplatin, 30 day test (Table 3); format: in vivo, Female CD2Fl mice
Protocol: (§1) Biological properties of the compounds of the present invention were determined following the protocol described in Cancer Chemotherapy Reports, Vol. 3, No. 3, 1972 which report is incorporated herein by reference.
(§2) Other known mechanisms of resistance for other classes of agents, such as gene amplification or target enzyme change or amplication, also need to be explored. The experiments summarized in Table 3 were conducted at the same time against both sublines using the same drug preparations. […] These experiments were repeated in a second laboratory as documented in Table 4. However, in these experiments the animals were held for 60 rather than 30 days to evaluate whether or not long-term survivors are produced after drug treatment in a more challenging setting.
(§3) This experiment (A8-00005 3LE31) was conducted at the Southern Research Institute, Birmingham, Ala. under the supervision of Dr. Daniel Griswold. The protocols were the same as those published previously (Geran et al., Cancer Chemotherapy Reports 3: No. 2, 1972 [Attachment 11]). 10^5 cells were implanted intraperitoneally in CD2Fl male mice on Day 0. Drug treatments were given intraperitoneally as single injections at the doses indicated on Days 1, 5 and 9 after tumor implantation. The diluent was saline except for NSC-271674 where 5% sodium bicarbonate was used. All drugs were prepared fresh on the day of injection, and all were administered in solution. Median survival times for both control and drug-treated mice were determined and expressed as a percentage (% T/C). Body weights were determined on Day 5 and expressed as a weight difference (body weight of the drug-treated animals minus that of the control animals in grams) (T-C). The diluent control animals lived a median of 8.4 days and gained 1.9 grams by Day 5 in this experiment. All animals, including Day 30 survivors, were used in the calculation of median survival times. The log10 change in tumor burden refers to the net log change in viable tumor cell population at the end of therapy (Rx) as compared to the start of therapy; e.g., a […] means that there was a […] and a 3 log change means there was a 1000-fold increase in tumor burden at the end of therapy. The tumor burden at the start of therapy was about 6.1×10^5 cells in this experiment.
These experiments (A8-00008 3LE31 and A8-00001 3DP31) were conducted concurrently at the Southern Research Institute, Birmingham, Ala. under the supervision of Dr. Daniel Griswold. See Table 4 for experimental details. The diluent control animals bearing L1210 leukemia lived a median of 8.6 days and gained 1.3 grams by Day 5. […] Female CD2Fl mice were used for these experiments.

IP L1210/Cisplatin = assay: Activity against IP-implanted L1210/Cisplatin leukemia resistant to cisplatin, 30 day test (Table 3); format: in vivo, Female CD2Fl mice
Protocol: as §1, §2
This experiment (A8-00005 3LE31) was conducted at the Southern Research Institute, Birmingham, Ala. under the supervision of Dr. Daniel Griswold. The protocols were the same as those published previously (Geran et al., Cancer Chemotherapy Reports 3: No. 2, 1972 [Attachment 11]). 10^5 cells were implanted intraperitoneally in CD2Fl male mice on Day 0. Drug treatments were given intraperitoneally as single injections at the doses indicated on Days 1, 5 and 9 after tumor implantation. The diluent was saline except for NSC-271674 where 5% sodium bicarbonate was used. All drugs were prepared fresh on the day of injection, and all were administered in solution. Median survival times for both control and drug-treated mice were determined and expressed as a percentage (% T/C). Body weights were determined on Day 5 and expressed as a weight difference (body weight of the drug-treated animals minus that of the control animals in grams) (T-C). The diluent control animals lived a median of 8.4 days and gained 1.9 grams by Day 5 in this experiment. All animals, including Day 30 survivors, were used in the calculation of median survival times. The log10 change in tumor burden refers to the net log change in viable tumor cell population at the end of therapy (Rx) as compared to the start of therapy; e.g., a […] means that there was a […] and a 3 log change means there was a 1000-fold increase in tumor burden at the end of therapy. The tumor burden at the start of therapy was about 6.1×10^5 cells in this experiment. […]

[1] = test system: IP-Implanted L1210 Leukemia; assay: Dose-response against IP-implanted L1210 leukemia, IP treatment Days 1, 5 and 9, 30-day test (Table 2); format: in vivo, CD2Fl male mice
Protocol: as §1, §3

[Cl][Pt]1([Cl])([Cl])([Cl])[NH]C2CCCCC2[NH]1 (stereo not drawn) [trans (d, l), (d,l)-Tetrachloro-trans-1,2-cyclohexanediamine platinum (IV)]
30 Day Survivors/Total (IP L1210; 1 mg/kg/dose): 0/6 | Approx. Log10 Change in Tumor Burden at End of RX (IP L1210; 1 mg/kg/dose): ~2.8 log10 | Median % T/C (IP L1210; 1 mg/kg/dose): 125% | 30 Day Survivors/Total (IP L1210; 2 mg/kg/dose): 0/6 | Approx. Log10 Change in Tumor Burden at End of RX (IP L1210; 2 mg/kg/dose): ~2.4 log10 | Median % T/C (IP L1210; 2 mg/kg/dose): 151% | 30 Day Survivors/Total (IP L1210; 4 mg/kg/dose): 2/6 | Approx. Log10 Change in Tumor Burden at End of RX (IP L1210; 4 mg/kg/dose): ~-1.5 log10 | Median % T/C (IP L1210; 4 mg/kg/dose): 212% | 30 Day Survivors/Total (IP L1210; 8 mg/kg/dose): 3/6 | Approx. Log10 Change in Tumor Burden at End of RX (IP L1210; 8 mg/kg/dose): ~-5.9 log10 | Median % T/C (IP L1210; 8 mg/kg/dose): 348% | 30 Day Survivors/Total (IP L1210; 16 mg/kg/dose): 1/6 | Median % T/C (IP L1210; 16 mg/kg/dose): 143% | 30 Day Survivors/Total (IP L1210/Cisplatin; 1 mg/kg/dose): 0/6 | Approx. Log10 Change in Tumor Burden at End of RX (IP L1210/Cisplatin; 1 mg/kg/dose): ~2.8 log10 | Median % T/C (IP L1210/Cisplatin; 1 mg/kg/dose): 115% | 30 Day Survivors/Total (IP L1210/Cisplatin; 2 mg/kg/dose): 0/6 | Approx. Log10 Change in Tumor Burden at End of RX (IP L1210/Cisplatin; 2 mg/kg/dose): ~2.8 log10 | Median % T/C (IP L1210/Cisplatin; 2 mg/kg/dose): 118% | 30 Day Survivors/Total (IP L1210/Cisplatin; 4 mg/kg/dose): 2/6 | Approx. Log10 Change in Tumor Burden at End of RX (IP L1210/Cisplatin; 4 mg/kg/dose): ~-3.4 log10 | Median % T/C (IP L1210/Cisplatin; 4 mg/kg/dose): 225% | 30 Day Survivors/Total (IP L1210/Cisplatin; 8 mg/kg/dose): 4/6 | Approx. Log10 Change in Tumor Burden at End of RX (IP L1210/Cisplatin; 8 mg/kg/dose): ~-5.9 log10 | Median % T/C (IP L1210/Cisplatin; 8 mg/kg/dose): 322% | 30 Day Survivors/Total (IP L1210/Cisplatin; 16 mg/kg/dose): 1/6 | Median % T/C (IP L1210/Cisplatin; 16 mg/kg/dose): 110% | 30-Day Survivors/Total ([1]; 1 mg/kg/dose IP): 0/6 | Approx. Log10 Change in Tumor Burden at End of Rx ([1]; 1 mg/kg/dose IP): ~2.9 log10 | Body Weight Difference ([1]; 1 mg/kg/dose IP): -0.5 Grams | Median % T/C ([1]; 1 mg/kg/dose IP): 122% | 30-Day Survivors/Total ([1]; 2 mg/kg/dose IP): 0/6 | Approx. Log10 Change in Tumor Burden at End of Rx ([1]; 2 mg/kg/dose IP): ~2.5 log10 | Body Weight Difference ([1]; 2 mg/kg/dose IP): -1.5 Grams | Median % T/C ([1]; 2 mg/kg/dose IP): 146% | 30-Day Survivors/Total ([1]; 4 mg/kg/dose IP): 1/6 | Approx. Log10 Change in Tumor Burden at End of Rx ([1]; 4 mg/kg/dose IP): ~-0.5 log10 | Body Weight Difference ([1]; 4 mg/kg/dose IP): -1.5 Grams | Median % T/C ([1]; 4 mg/kg/dose IP): 202% | 30-Day Survivors/Total ([1]; 8 mg/kg/dose IP): 4/6 | Approx. Log10 Change in Tumor Burden at End of Rx ([1]; 8 mg/kg/dose IP): ~-5.7 log10 | Body Weight Difference ([1]; 8 mg/kg/dose IP): -1.2 Grams | Median % T/C ([1]; 8 mg/kg/dose IP): 357% | Body Weight Difference ([1]; 8 mg/kg/dose IP, listed as trans dl): less than -4 Grams | 30-Day Survivors/Total ([1]; 16 mg/kg/dose IP): 1/6 | Approx. Log10 Change in Tumor Burden at End of Rx ([1]; 16 mg/kg/dose IP): ~2.6 log10 | Body Weight Difference ([1]; 16 mg/kg/dose IP): -4.6 Grams | Median % T/C ([1]; 16 mg/kg/dose IP): 142% | Optimal dose (dose producing best therapeutic response) ([1]; day 1, 5 and 9 schedule): 8 mg/kg/injection

N[C@@H]1CCCC[C@H]1N.O=C([O-])c1ccc(C(=O)[O-])c(C(=O)[O-])c1.[H+].[Pt+2] [Carboxyphthalato Platinum, carboxyphthalatocyclohexanediamine platinum (II), reference compound]
30 Day Survivors/Total (IP L1210; 3.13 mg/kg/dose): 1/6 | Approx. Log10 Change in Tumor Burden at End of RX (IP L1210; 3.13 mg/kg/dose): ~1.4 log10 | Median % T/C (IP L1210; 3.13 mg/kg/dose): 174% | 30 Day Survivors/Total (IP L1210; 6.25 mg/kg/dose): 5/6 | Approx. Log10 Change in Tumor Burden at End of RX (IP L1210; 6.25 mg/kg/dose): ~-5.9 log10 | Median % T/C (IP L1210; 6.25 mg/kg/dose): 348% | 30 Day Survivors/Total (IP L1210; 12.5 mg/kg/dose): 6/6 | Approx. Log10 Change in Tumor Burden at End of RX (IP L1210; 12.5 mg/kg/dose): ~-5.9 log10 | Median % T/C (IP L1210; 12.5 mg/kg/dose): 348% | 30 Day Survivors/Total (IP L1210; 25 mg/kg/dose): 0/6 | Median % T/C (IP L1210; 25 mg/kg/dose): 73% | 30 Day Survivors/Total (IP L1210; 50 mg/kg/dose): 0/6 | Median % T/C (IP L1210; 50 mg/kg/dose): 50% | 30 Day Survivors/Total (IP L1210/Cisplatin; 3.13 mg/kg/dose): 2/6 | Approx. Log10 Change in Tumor Burden at End of RX (IP L1210/Cisplatin; 3.13 mg/kg/dose): ~2.4 log10 | Median % T/C (IP L1210/Cisplatin; 3.13 mg/kg/dose): 139% | 30 Day Survivors/Total (IP L1210/Cisplatin; 6.25 mg/kg/dose): 4/6 | Approx. Log10 Change in Tumor Burden at End of RX (IP L1210/Cisplatin; 6.25 mg/kg/dose): ~-5.9 log10 | Median % T/C (IP L1210/Cisplatin; 6.25 mg/kg/dose): 322% | 30 Day Survivors/Total (IP L1210/Cisplatin; 12.5 mg/kg/dose): 4/6 | Approx. Log10 Change in Tumor Burden at End of RX (IP L1210/Cisplatin; 12.5 mg/kg/dose): ~-5.9 log10 | Median % T/C (IP L1210/Cisplatin; 12.5 mg/kg/dose): 322% | 30 Day Survivors/Total (IP L1210/Cisplatin; 25 mg/kg/dose): 2/6 | Approx. Log10 Change in Tumor Burden at End of RX (IP L1210/Cisplatin; 25 mg/kg/dose): ~-5.9 log10 | Median % T/C (IP L1210/Cisplatin; 25 mg/kg/dose): 304% | 30 Day Survivors/Total (IP L1210/Cisplatin; 50 mg/kg/dose): 1/6 | Median % T/C (IP L1210/Cisplatin; 50 mg/kg/dose): 129% | Reduction in tumor burden over the course of therapy (IP L1210/Cisplatin; L1210/Cisplatin): at least -5.9 logs | 30-day survivors (IP L1210/Cisplatin; tolerated doses): three or more 30-day survivors | 30-Day Survivors/Total ([1]; 3.13 mg/kg/dose IP): 0/6 | Approx. Log10 Change in Tumor Burden at End of Rx ([1]; 3.13 mg/kg/dose IP): ~2.5 log10 | Body Weight Difference ([1]; 3.13 mg/kg/dose IP): -0.5 Grams | Median % T/C ([1]; 3.13 mg/kg/dose IP): 146% | 30-Day Survivors/Total ([1]; 6.25 mg/kg/dose IP): 0/6 | Approx. Log10 Change in Tumor Burden at End of Rx ([1]; 6.25 mg/kg/dose IP): ~2.3 log10 | Body Weight Difference ([1]; 6.25 mg/kg/dose IP): -0.8 Grams | Median % T/C ([1]; 6.25 mg/kg/dose IP): 154% | 30-Day Survivors/Total ([1]; 12.5 mg/kg/dose IP): 2/6 | Approx. Log10 Change in Tumor Burden at End of Rx ([1]; 12.5 mg/kg/dose IP): -5.7 log10 | Body Weight Difference ([1]; 12.5 mg/kg/dose IP): -2.1 Grams | Median % T/C ([1]; 12.5 mg/kg/dose IP): 309% | 30-Day Survivors/Total ([1]; 25 mg/kg/dose IP): 4/6 | Approx. Log10 Change in Tumor Burden at End of Rx ([1]; 25 mg/kg/dose IP): -5.7 log10 | Body Weight Difference ([1]; 25 mg/kg/dose IP): -1.5 Grams | Median % T/C ([1]; 25 mg/kg/dose IP): 357% | 30-Day Survivors/Total ([1]; 50 mg/kg/dose IP): 2/6 | Approx. Log10 Change in Tumor Burden at End of Rx ([1]; 50 mg/kg/dose IP): -5.7 log10 | Body Weight Difference ([1]; 50 mg/kg/dose IP): -5.0 Grams | Median % T/C ([1]; 50 mg/kg/dose IP): 345% | Body Weight Difference ([1]; 50 mg/kg/dose IP, listed as carboxyphthalato cyclohexanediamine platinum (II)): more than -4 Grams
